Key:
mice (小鼠) [1] = experiment: Open field test (旷场实验), hyperlocomotion; assay type: in vivo, Kunming mouse; settings: medium and large dose (50, 100 mg/kg), i.p., single administration (day 1); P<0.01
mice (小鼠) [2] = experiment: Stereotyped behaviour (刻板行为); assay type: in vivo, Kunming mouse; settings: medium and large dose (50, 100 mg/kg), i.p., P<0.01
mice (小鼠) [3] = experiment: Suspension test (悬吊实验), limb weakness; assay type: in vivo, Kunming mouse; settings: i.p., single administration (day 1)
mice (小鼠) [4] = experiment: Pole climbing test (爬杆实验), ataxia; assay type: in vivo, Kunming mouse; settings: medium and large dose (50, 100 mg/kg), i.p., once daily for 7 days; P<0.01
mice (小鼠) [5] = experiment: Y-maze test (Y型迷宫实验), learning and memory; assay type: in vivo, Kunming mouse; settings: medium and large dose (50, 100 mg/kg), i.p., once daily for 7 days; P<0.01
mice (小鼠) [6] = experiment: Schizophrenia-like symptoms overall (behavioural tests together); assay type: in vivo, Kunming mouse; settings: i.p.
SOD [7] = experiment: Serum SOD determination; assay type: in vivo, Kunming mouse; settings: 25, 50, 100 mg/kg, i.p., once daily for 7 days; with increasing dose
SOD [8] = experiment: Brain tissue SOD determination; assay type: in vivo, Kunming mouse; settings: 25, 50, 100 mg/kg, i.p., once daily for 7 days; with increasing dose
NOX4 protein (NOX4蛋白) = experiment: NOX4 protein expression (immunohistochemistry); assay type: in vivo, Kunming mouse; settings: i.p.
[9] = tested on: depressed patients (抑郁患者); settings: 0.5 mg/kg; Liebrenz et al.; cited from earlier work
rats (大鼠) = settings: repeated injection; Trujillo et al.; cited from earlier work
[10] = 25, 50, 100 mg/kg, single or repeated administration

CNC1(c2ccccc2Cl)CCCCC1=O (stereo not drawn) [氯胺酮]
hyperlocomotion (mice (小鼠) [1]): 明显的运动亢进 | stereotyped behaviour (mice (小鼠) [2]; once daily for 7 days): 刻板行为增加 | stereotyped behaviour (mice (小鼠) [2]; single administration (day 1)): 刻板行为 | limb weakness (mice (小鼠) [3]; medium and large dose (50, 100 mg/kg), P<0.01): 四肢无力 | limb weakness (mice (小鼠) [3]; small dose 25 mg/kg, P<0.05): 产生四肢无力 | ataxia (mice (小鼠) [4]): 共济失调现象 | learning and memory ability (mice (小鼠) [5]): 学习记忆能力下降 | schizophrenia-like symptoms (mice (小鼠) [6]; [10]): 均可诱导小鼠产生类似精神分裂症的症状 | schizophrenia-like symptoms, dose dependence (mice (小鼠) [6]; [10]): 具有一定的剂量依赖趋势 | stability of part of the symptoms (mice (小鼠) [6]; after 7 days of repeated administration): 部分症状具有更好的稳定性 | schizophrenia-like symptoms (mice (小鼠) [6]; large dose 100 mg/kg): 更为明显 | serum SOD activity, dose trend (SOD [7]): 逐渐降低 | brain tissue SOD activity, dose trend (SOD [8]): 逐渐降低 | NOX4 protein expression, dose dependence (NOX4 protein (NOX4蛋白); 25, 50, 100 mg/kg): 有一定的剂量依赖趋势 | NOX4 protein expression, pairwise comparison among dose groups (NOX4 protein (NOX4蛋白); 25, 50, 100 mg/kg, P<0.01): 具有显著性差异 | NOX4 protein expression (NOX4 protein (NOX4蛋白); different doses of ketamine (25, 50, 100 mg/kg), P<0.01): 显著增加 | symptoms of depressed patients [9]: 显著改善 | activity of rats (rats (大鼠)): 活动增多

Reference: patent CN107801692A, “一种氯胺酮诱导精神分裂症动物模型及其机制研究” (Kunming Medical University, priority 2017, dated 2018)
